The results in this text go back to ChEMBL document CHEMBL4396865, “Current advances of triazole alcohols derived from fluconazole: Design, in vitro and in silico studies” (2019).

Molecules are shown by their SMILES. In brackets after ≈: the same amount, converted by molar mass.

Common to all, as to type: functional
The test system of assay [1] is Cryptococcus neoformans. Nature of the assay: Antifungal activity against Cryptococcus neoformans.
In assay [2] the test system is Kluyveromyces marxianus. Nature of the assay: Antifungal activity against Candida kefyr.
Assay [3] has as its system Candida parapsilosis. Nature of the assay: Antifungal activity against Candida parapsilosis.
For assay [4], the system named is Aspergillus fumigatus. Put plainly: Antifungal activity against Aspergillus fumigatus.
Assay [5] concerns Candida tropicalis. Put plainly: Antifungal activity against Candida tropicalis.
Assay [6] deals with Trichophyton rubrum. Put plainly: Antifungal activity against Trichophyton rubrum.
Assay [7] relates to Candida albicans. Nature of the assay: Antifungal activity against Candida albicans.
Assay [8] has as its system Cryptococcus neoformans. Put plainly: Antifungal activity against Cryptococcus neoformans after 72 hrs by NCCLS protocol based method.
Assay [9] has as its system Candida albicans. Put plainly: Antifungal activity against Candida albicans after 24 hrs by NCCLS protocol based method.
The mark [10] stands for this setting: Cryptococcus neoformans, read-out: MIC.
The mark [11] stands for this setting: Lodderomyces parapsilosis, read-out: MIC.
Where [12] appears, read: Trichophyton rubrum, read-out: MIC.

With `C#CCN(Cc1ccc(F)cc1)CC(O)(Cn1cncn1)c1ccc(F)cc1F` (stereo unspecified), the MIC in assay [1], in [2], in assay [3], in [4], in assay [5] and in [6] was 0.24 to 250 ng/mL throughout. Further, in assay [7], the MIC lay in the range of 0.24 to 250 ng/mL.
As to `C#CCN(Cc1cccc(F)c1)CC(O)(Cn1cncn1)c1ccc(F)cc1F` (stereo unspecified), the minimal inhibitory concentration (MIC) in assay [1], in assay [2], in assay [3], in assay [4], in [5] and in assay [6] was 0.24 to 250 ng/mL each time. The compound also registered an MIC in assay [7] of 0.24 to 250 ng/mL.
Regarding `C#CCN(Cc1ccc([N+](=O)[O-])cc1)CC(O)(Cn1cncn1)c1ccc(F)cc1F` (stereo unspecified), the MIC in assay [1], in assay [2], in [3], in assay [4], in assay [5] and in assay [6] was 0.24 to 250 ng/mL throughout. This compound showed an MIC in [7] of 0.24 to 250 ng/mL.
`C#CCN(Cc1cccc(Cl)c1)CC(O)(Cn1cncn1)c1ccc(F)cc1F` (stereo unspecified): the MIC in assay [1], in assay [2], in assay [3], in [4], in [5] and in [6] was 0.24 to 250 ng/mL throughout. Besides, the MIC in assay [7] was 0.24 to 250 ng/mL.
`Cc1ccccc1-c1nnc(SCc2cn(CC(O)(Cn3cncn3)c3ccc(F)cc3F)nn2)o1` (stereo unspecified) registered an MIC80 in [7] (Candida albicans) of 500 ng/mL (≈ 979 nM).
In assay [7] (Candida albicans), `CCCc1ccc(-c2nnc(SCc3cn(CC(O)(Cn4cncn4)c4ccc(F)cc4F)nn3)o2)cc1` (stereo unspecified) showed an MIC80 of 500 ng/mL (≈ 928 nM).
As to `C#CCN(Cc1cccc(C)c1)CC(O)(Cn1cncn1)c1ccc(F)cc1F` (stereo unspecified), the MIC in assay [1], in assay [2], in assay [3], in assay [4], in assay [5] and in assay [6] was 0.24 to 250 ng/mL each time. The compound further came in with an MIC in [7] of 0.24 to 250 ng/mL.
On to `C#CCN(Cc1ccccc1Br)CC(O)(Cn1cncn1)c1ccc(F)cc1F` (stereo unspecified), for which the MIC in assay [1], in assay [2], in assay [3], in assay [4], in assay [5] and in assay [6] was 0.24 to 250 ng/mL each time. For the same compound, the MIC in [7] was 0.24 to 250 ng/mL.
On to `C#CCN(Cc1ccc(Cl)cc1)CC(O)(Cn1cncn1)c1ccc(F)cc1F` (stereo unspecified), for which the MIC in [1], in [2], in assay [3], in assay [4], in assay [5] and in [6] was 0.24 to 250 ng/mL in each case. In [7], this compound had an MIC of 0.24 to 250 ng/mL.
Turning to `C#CCN(Cc1ccc(Br)cc1)CC(O)(Cn1cncn1)c1ccc(F)cc1F` (stereo unspecified), the MIC in [1], in [2], in assay [3], in assay [4], in [5] and in assay [6] was 0.24 to 250 ng/mL in each case. For the same compound, the MIC in assay [7] lay in the range of 0.24 to 250 ng/mL.
Consider `C#CCN(Cc1ccccc1Cl)CC(O)(Cn1cncn1)c1ccc(F)cc1F` (stereo unspecified), for which the MIC in [1], in [2], in [3], in assay [4], in assay [5] and in [6] was 0.24 to 250 ng/mL each time. Also, in assay [7], the MIC was 0.24 to 250 ng/mL.
`CCN(Cc1cn(Cc2ccc(Cl)cc2)nn1)CC(O)(Cn1cncn1)c1ccc(F)cc1F` (stereo unspecified): the MIC lay within 3.9 to 62.5 ng/mL (≈ 7.99 to 128 nM) in assay [1] (setting [10]); 3.9 to 62.5 ng/mL (≈ 7.99 to 128 nM) in assay [2] (Kluyveromyces marxianus, read-out: MIC); 3.9 to 62.5 ng/mL (≈ 7.99 to 128 nM) in assay [3] (setting [11]); 3.9 to 62.5 ng/mL (≈ 7.99 to 128 nM) in [5] (Candida tropicalis, read-out: MIC); 3.9 to 62.5 ng/mL (≈ 7.99 to 128 nM) in [6] (setting [12]); 3.9 to 62.5 ng/mL (≈ 7.99 to 128 nM) in [7] (Candida albicans, read-out: MIC).
Turning to `C#CCN(Cc1ccccc1C#N)CC(O)(Cn1cncn1)c1ccc(F)cc1F` (stereo unspecified), the MIC in assay [1], in [2], in assay [3], in assay [4], in assay [5] and in assay [6] was 0.24 to 250 ng/mL each time. In [7], this compound had an MIC of 0.24 to 250 ng/mL.
As to `O=C1S/C(=C\c2ccco2)C(=O)N1CC(O)(Cn1cncn1)c1ccc(F)cc1F` (stereo unspecified), the MIC80 was 0.12 µM (≈ 0.0519 µg/mL) in [8] and 0.03 to 0.15 µM (≈ 0.013 to 0.0649 µg/mL) in assay [9].
For the compound `C#CCN(Cc1ccc(C)cc1)CC(O)(Cn1cncn1)c1ccc(F)cc1F` (stereo unspecified), the MIC in [1], in assay [2], in assay [3], in assay [4], in [5] and in assay [6] was 0.24 to 250 ng/mL in each case. The compound further yielded an MIC in [7] of 0.24 to 250 ng/mL.
As to `C#CCN(Cc1ccccc1[N+](=O)[O-])CC(O)(Cn1cncn1)c1ccc(F)cc1F` (stereo unspecified), the MIC in assay [1], in assay [2], in assay [3], in [4], in assay [5] and in [6] was 0.24 to 250 ng/mL throughout. This compound showed an MIC in [7] of 0.24 to 250 ng/mL.
On to `CCN(Cc1cn(Cc2ccc(Cl)cc2Cl)nn1)CC(O)(Cn1cncn1)c1ccc(F)cc1F` (stereo unspecified), for which, in assay [6] (setting [12]), the MIC came to 3.9 ng/mL (≈ 7.47 nM).
For `OC(Cc1cn(Cn2ncc(CC3CCCCC3)n2)nn1)(Cn1cncn1)c1ccc(F)cc1F` (stereo unspecified), the MIC in assay [1] (setting [10]) is 0.15 ng/mL (≈ 0.31 nM); in assay [3] (setting [11]) it was 3 ng/mL (≈ 6.2 nM).
As for `C#CCN(Cc1ccccc1F)CC(O)(Cn1cncn1)c1ccc(F)cc1F` (stereo unspecified), the MIC in assay [1], in assay [2], in assay [3], in assay [4], in [5] and in assay [6] was 0.24 to 250 ng/mL throughout. Further, in assay [7], the MIC is 0.24 to 250 ng/mL.
Take `CCCCCCc1cnn(Cn2cc(CC(O)(Cn3cncn3)c3ccc(F)cc3F)nn2)n1` (stereo unspecified): the MIC in assay [1] (setting [10]) amounted to 0.15 ng/mL (≈ 0.318 nM); in [3] (setting [11]), 3 ng/mL (≈ 6.36 nM).
For `C#CCN(Cc1ccccc1C)CC(O)(Cn1cncn1)c1ccc(F)cc1F` (stereo unspecified), the MIC in assay [1], in assay [2], in assay [3], in assay [4], in assay [5] and in [6] was 0.24 to 250 ng/mL throughout. The compound also had an MIC in assay [7] of 0.24 to 250 ng/mL.
Consider `C#CCN(Cc1ccccc1)CC(O)(Cn1cncn1)c1ccc(F)cc1F` (stereo unspecified), for which the MIC in [1], in assay [2], in [3], in [4], in assay [5] and in assay [6] was 0.24 to 250 ng/mL throughout. Also, in assay [7], the MIC is 0.24 to 250 ng/mL.
Regarding `C#CCN(Cc1cccc([N+](=O)[O-])c1)CC(O)(Cn1cncn1)c1ccc(F)cc1F` (stereo unspecified), the MIC in [1], in assay [2], in [3], in assay [4], in [5] and in assay [6] was 0.24 to 250 ng/mL throughout. For the same compound, the MIC in assay [7] was in the range of 0.24 to 250 ng/mL.
As for `O=C1S/C(=C\c2ccc(Cl)cc2Cl)C(=O)N1CC(O)(Cn1cncn1)c1ccc(F)cc1F` (stereo unspecified), the figures for the MIC80 in assay [8] and in [9] were 0.12 µM (≈ 0.0614 µg/mL) and 0.03 to 0.15 µM (≈ 0.0153 to 0.0767 µg/mL), respectively.
On to `CN(CCOc1ccc(CC2SC(=O)N(CC(O)(Cn3cncn3)c3ccc(F)cc3F)C2=O)cc1)c1ccccn1` (stereo unspecified), for which the MIC80 in [8] is 13.4 µM (≈ 8 µg/mL); in [9], 6.72 µM (≈ 4 µg/mL).
For the compound `O=C1S/C(=C\c2ccoc2)C(=O)N1CC(O)(Cn1cncn1)c1ccc(F)cc1F` (stereo unspecified), the MIC80 in [8] is 0.12 µM (≈ 0.0519 µg/mL); in assay [9] it was 0.03 to 0.15 µM (≈ 0.013 to 0.0649 µg/mL).
Regarding `C#CCN(Cc1cccc(Br)c1)CC(O)(Cn1cncn1)c1ccc(F)cc1F` (stereo unspecified), the MIC in assay [1], in assay [2], in [3], in assay [4], in assay [5] and in [6] was 0.24 to 250 ng/mL throughout. The compound also yielded an MIC in assay [7] of 0.24 to 250 ng/mL.
In the case of `Cc1cccc(-c2cn(CC(O)(Cn3cncn3)c3ccc(F)cc3F)nn2)c1` (stereo unspecified), in assay [6] (setting [12]), the MIC amounted to 250 ng/mL (≈ 631 nM).
